Among the targets are DMPK (Homo sapiens, UniProt Q09013); MET (cMet) (Homo sapiens, UniProt P08581); STK25 (YSK1) (Homo sapiens, UniProt O00506).
Assay in all cases: SelectScreen kinase assay
The target in the next experiment is T1, MAP3K5 (ASK1) (Homo sapiens, UniProt Q99683).
T1 sequence (Q99683 1-1374): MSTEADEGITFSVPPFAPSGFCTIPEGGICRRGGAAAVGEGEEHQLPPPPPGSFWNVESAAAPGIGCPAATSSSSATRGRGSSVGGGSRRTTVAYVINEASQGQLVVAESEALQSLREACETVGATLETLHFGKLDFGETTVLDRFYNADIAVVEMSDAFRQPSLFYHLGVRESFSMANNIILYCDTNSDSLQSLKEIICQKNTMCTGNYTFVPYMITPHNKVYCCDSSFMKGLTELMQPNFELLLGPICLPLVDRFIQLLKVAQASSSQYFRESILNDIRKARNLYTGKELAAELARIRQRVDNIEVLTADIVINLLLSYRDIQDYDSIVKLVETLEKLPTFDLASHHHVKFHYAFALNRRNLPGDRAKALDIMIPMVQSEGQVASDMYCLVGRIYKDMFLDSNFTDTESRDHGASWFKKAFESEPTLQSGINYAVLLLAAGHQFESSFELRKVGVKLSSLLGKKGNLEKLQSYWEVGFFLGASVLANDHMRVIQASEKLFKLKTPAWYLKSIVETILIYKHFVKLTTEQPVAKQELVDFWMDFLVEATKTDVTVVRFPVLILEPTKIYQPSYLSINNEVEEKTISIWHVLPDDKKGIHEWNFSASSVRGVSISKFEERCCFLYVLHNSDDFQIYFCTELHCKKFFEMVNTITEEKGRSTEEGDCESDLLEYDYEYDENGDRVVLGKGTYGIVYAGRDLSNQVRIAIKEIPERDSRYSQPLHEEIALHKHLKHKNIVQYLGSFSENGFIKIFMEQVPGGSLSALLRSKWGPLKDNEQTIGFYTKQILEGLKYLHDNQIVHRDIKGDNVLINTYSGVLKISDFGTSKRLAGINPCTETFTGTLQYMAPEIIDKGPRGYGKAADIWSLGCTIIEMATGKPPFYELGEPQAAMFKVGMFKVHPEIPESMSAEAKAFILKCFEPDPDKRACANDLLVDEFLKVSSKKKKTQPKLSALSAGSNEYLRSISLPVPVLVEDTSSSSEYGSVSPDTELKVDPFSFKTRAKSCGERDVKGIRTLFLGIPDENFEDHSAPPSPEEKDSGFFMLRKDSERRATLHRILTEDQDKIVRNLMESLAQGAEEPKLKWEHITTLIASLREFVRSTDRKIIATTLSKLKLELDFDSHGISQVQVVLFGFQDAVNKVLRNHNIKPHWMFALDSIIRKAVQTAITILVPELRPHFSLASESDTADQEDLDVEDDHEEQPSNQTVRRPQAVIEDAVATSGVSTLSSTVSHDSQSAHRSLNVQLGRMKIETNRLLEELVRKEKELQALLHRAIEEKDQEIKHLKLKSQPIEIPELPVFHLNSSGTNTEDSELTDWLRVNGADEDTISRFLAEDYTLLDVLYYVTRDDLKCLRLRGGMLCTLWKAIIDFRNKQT

The next experiment deals with T2, MYO3B (MYO3 beta) (Homo sapiens, UniProt Q8WXR4).
T2 sequence (Q8WXR4 1-1341): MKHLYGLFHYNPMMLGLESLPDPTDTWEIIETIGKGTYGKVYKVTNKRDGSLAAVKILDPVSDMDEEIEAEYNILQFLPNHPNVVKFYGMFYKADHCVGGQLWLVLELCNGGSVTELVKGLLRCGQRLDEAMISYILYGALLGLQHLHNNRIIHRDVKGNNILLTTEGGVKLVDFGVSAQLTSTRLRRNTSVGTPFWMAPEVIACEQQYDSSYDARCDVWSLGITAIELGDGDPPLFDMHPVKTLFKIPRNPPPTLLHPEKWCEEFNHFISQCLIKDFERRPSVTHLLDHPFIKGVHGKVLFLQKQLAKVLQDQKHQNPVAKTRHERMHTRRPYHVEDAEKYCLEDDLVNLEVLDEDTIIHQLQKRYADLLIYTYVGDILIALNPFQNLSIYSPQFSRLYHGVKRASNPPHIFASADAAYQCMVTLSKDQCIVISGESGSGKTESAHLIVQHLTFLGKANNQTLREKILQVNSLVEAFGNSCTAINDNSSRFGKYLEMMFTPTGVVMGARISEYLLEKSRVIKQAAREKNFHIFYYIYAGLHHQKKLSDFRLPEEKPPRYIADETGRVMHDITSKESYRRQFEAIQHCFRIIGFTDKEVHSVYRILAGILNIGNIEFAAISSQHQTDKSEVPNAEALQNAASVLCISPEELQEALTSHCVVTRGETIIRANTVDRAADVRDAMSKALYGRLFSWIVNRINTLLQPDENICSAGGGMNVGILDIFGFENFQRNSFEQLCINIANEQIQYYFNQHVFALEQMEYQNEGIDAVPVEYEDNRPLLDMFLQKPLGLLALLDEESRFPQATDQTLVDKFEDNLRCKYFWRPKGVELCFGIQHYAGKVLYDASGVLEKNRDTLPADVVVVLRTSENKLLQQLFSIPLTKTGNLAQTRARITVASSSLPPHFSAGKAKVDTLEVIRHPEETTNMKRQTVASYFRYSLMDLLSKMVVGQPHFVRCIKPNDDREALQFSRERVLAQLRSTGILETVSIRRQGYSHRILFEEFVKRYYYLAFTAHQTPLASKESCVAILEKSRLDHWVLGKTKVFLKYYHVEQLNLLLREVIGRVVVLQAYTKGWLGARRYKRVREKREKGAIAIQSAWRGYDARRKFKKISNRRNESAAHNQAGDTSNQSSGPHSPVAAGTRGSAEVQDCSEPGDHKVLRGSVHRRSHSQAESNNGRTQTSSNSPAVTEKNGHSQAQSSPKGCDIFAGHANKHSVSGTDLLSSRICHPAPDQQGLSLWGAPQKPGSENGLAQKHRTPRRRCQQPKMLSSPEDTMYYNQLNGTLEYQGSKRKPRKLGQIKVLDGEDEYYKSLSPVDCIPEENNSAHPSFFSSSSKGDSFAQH

Where [1] appears, read: 1 h, 1 μM WEL028, 1 h preincubation.

The structures appear in SMILES notation. “And” between values parts separate entries of the source, which are not always exact repeats. Equal entries are not always repeated. Where two headings read alike, the source gives them in different places.

Sequence of DMPK (Q09013 whole entry): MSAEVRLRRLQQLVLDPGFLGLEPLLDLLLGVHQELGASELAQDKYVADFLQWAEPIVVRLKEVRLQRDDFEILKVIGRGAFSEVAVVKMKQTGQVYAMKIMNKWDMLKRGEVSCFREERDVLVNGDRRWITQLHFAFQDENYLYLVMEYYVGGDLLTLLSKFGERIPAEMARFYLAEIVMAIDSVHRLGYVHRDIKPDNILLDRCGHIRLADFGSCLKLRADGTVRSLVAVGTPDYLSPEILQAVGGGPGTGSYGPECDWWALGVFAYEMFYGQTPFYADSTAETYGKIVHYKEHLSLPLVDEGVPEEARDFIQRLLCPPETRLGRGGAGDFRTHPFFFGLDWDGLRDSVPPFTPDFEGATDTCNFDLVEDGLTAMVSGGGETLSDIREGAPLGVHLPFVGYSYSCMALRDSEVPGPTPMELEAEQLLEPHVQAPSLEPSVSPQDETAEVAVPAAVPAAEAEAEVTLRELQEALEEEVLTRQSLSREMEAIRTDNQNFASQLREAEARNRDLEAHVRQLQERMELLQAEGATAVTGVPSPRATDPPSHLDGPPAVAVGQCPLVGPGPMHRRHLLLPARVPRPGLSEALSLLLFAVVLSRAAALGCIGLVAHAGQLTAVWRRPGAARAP
Sequence of MET (cMet) (P08581 25-1390): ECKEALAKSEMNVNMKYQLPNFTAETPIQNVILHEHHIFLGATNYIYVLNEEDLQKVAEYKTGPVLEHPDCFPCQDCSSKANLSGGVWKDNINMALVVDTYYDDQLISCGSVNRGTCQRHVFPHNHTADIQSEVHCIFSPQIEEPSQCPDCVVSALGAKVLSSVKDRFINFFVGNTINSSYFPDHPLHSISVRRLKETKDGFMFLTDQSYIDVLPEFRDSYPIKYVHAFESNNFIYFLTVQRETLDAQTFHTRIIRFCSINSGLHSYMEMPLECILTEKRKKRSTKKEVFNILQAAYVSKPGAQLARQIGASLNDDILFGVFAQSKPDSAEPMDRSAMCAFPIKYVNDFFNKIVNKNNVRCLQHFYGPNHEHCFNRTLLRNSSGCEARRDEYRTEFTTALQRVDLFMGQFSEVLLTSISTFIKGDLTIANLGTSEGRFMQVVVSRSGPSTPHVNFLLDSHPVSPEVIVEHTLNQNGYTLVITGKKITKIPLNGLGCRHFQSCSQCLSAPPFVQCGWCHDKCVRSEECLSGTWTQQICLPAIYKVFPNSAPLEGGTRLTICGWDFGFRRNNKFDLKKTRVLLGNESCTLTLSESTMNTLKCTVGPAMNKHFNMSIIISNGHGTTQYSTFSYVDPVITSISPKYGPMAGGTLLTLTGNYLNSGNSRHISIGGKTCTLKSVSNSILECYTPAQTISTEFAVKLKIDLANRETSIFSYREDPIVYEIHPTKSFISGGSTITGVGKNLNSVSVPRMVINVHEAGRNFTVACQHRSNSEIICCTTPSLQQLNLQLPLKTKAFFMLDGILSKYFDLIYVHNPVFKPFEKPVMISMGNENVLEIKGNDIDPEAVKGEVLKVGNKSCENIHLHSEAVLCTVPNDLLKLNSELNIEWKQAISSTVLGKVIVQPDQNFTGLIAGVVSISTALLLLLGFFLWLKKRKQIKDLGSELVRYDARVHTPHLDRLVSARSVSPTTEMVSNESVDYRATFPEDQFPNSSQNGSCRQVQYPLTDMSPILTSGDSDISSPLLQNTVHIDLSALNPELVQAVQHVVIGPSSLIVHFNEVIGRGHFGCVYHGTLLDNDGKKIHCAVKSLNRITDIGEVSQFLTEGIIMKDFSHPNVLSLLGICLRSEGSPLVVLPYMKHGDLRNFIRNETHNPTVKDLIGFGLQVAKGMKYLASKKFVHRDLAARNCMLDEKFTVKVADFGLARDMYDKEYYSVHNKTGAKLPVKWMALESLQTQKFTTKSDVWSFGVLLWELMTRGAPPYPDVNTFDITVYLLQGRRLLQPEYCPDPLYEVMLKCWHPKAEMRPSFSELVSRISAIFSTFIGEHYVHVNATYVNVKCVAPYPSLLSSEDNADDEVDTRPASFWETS
Sequence of STK25 (YSK1) (O00506 whole entry): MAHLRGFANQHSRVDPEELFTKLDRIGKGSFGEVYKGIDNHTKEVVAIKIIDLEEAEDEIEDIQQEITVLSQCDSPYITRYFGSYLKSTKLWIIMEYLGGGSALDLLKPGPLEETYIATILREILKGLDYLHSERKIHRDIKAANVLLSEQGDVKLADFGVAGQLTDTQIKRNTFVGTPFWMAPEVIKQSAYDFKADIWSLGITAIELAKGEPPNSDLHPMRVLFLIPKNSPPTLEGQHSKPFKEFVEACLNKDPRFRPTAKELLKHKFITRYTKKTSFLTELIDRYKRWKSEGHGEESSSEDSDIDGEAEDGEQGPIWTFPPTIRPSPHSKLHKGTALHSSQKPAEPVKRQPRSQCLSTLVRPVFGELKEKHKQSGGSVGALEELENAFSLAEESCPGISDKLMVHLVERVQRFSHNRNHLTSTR
Experimental for DMPK: (§1) Selectivity profiling assays were performed by the Invitrogen SelectScreen™ Services. […] The concentration of ATP was selected to be equal to the KM, unless indicated otherwise.
Experimental for MAP3K5 (ASK1): as §1
Experimental for MET (cMet): as §1
Experimental for MYO3B (MYO3 beta): as §1
Experimental for STK25 (YSK1): as §1

As for `C#CCOc1ccc(Nc2ncc(Cl)c(Nc3ccccc3NC(=O)C=C)n2)c(OC)c1` [Compound 6], the inhibition at 1 µM was 3% at DMPK (setting [1]); 6% against MAP3K5 (ASK1) (setting [1]); 5% at MAP3K5 (ASK1) (read-out: Inhibition at 1 µM (%), MAP3K5 (ASK1), 1 µM, LanthaScreen Binding); 14% at MYO3B (MYO3 beta) (setting [1]); 15% at MYO3B (MYO3 beta) (read-out: Inhibition at 1 µM (%), MYO3B (MYO3 beta), 1 µM, LanthaScreen Binding); 5% on STK25 (YSK1) (setting [1]). Further, the “Inhibition at 1 µM (%)” value on DMPK (DMPK, 1 µM, LanthaScreen Binding, listed as WEL028, 1 µM) is 1% and 5%; on MAP3K5 (ASK1) (MAP3K5 (ASK1), 1 µM, LanthaScreen Binding, listed as WEL028, 1 µM) it was 8%; on MET (cMet) (MET (cMet), 1 µM, ZLYTE, ATP Km app, listed as WEL028, 1 µM), 0% and -9%; at MYO3B (MYO3 beta) (MYO3B (MYO3 beta), 1 µM, LanthaScreen Binding, listed as WEL028, 1 µM) it was 13%; on STK25 (YSK1) (1 µM, ZLYTE, ATP Km app), 15%. Moreover, at MET (cMet) (1 μM WEL028, 1 h preincubation), the “Inhibition (%)” value is given as -4%.

The values are drawn from PMC7316778 (Nature Communications, 2020).
